# Key:
# [1] = tested on: VSMCs; experiment: Oxidative stress in VSMCs (DCFDA to DCF fluorescence); format: cell-based; conditions: 10 μM, fluorescence measured for 6 hours
# Protocol: (§1) It is known that the level of reactive oxygen species in cells can be measured by measuring the conversion of 2′,7′-dichlorofluorescein diacetate (DCFDA) to the fluorescent dye 2′,7′-dichlorofluorescein (DCF). The fluorescence generated by cells subjected to DCFDA is directly proportional to the amount of oxidized DCFDA to DCF.
# To perform the study, VSMCs (10,000 cells/well) were plated in a 96-well plate and left to adhere overnight. Next, cells were incubated for 1 hour with 20 μM DCFDA. The medium was then changed to medium supplemented with 10 μM vitamin K2 (MK-7). To visualize intracellular oxidative stress, fluorescence was measured for 6 hours and fluorescence intensity was normalized for cell count.
# [2] = tested on: VSMCs; experiment: Warfarin-induced oxidative stress in VSMCs, effect of vitamin K2 (DCFDA); format: cell-based
# Protocol: as §1
# This study was performed to determine if vitamin K2 (MK-7) reduces warfarin-induced oxidative stress. To perform the study, VSMCs (10,000 cells/well) were plated in a 96-well plate and left to adhere overnight. Next, cells were incubated for 24 hours with 100 μM warfarin. The next day, 20 μM DCFDA was added to the cells for 1 hour. The cells were then incubated for 5 hours with normal medium (baseline), vitamin K2 (MK-7), or warfarin. Fluorescence was measured and fluorescence intensity was normalized for cell count.
# [3] = tested on: VSMCs; experiment: ATP increase in VSMCs, 24 hours (luminescence); format: cell-based; conditions: 10 μM
# Protocol: This study was performed to determine if vitamin K2 (MK-7) affects ATP generation. ATP is generated via glycolysis in the cytoplasm and via both the Krebs-cycle and oxidative phosphorylation in the mitochondria. ATP generation via glycolysis delivers only 2 ATP, whereas ATP generation in the mitochondria generates some 32 ATP.
# (§2) To perform this study, VSCMs (5000 cells/well) were plated in 96-well plates and left to adhere overnight. Next, cells were incubated for 24 hours with either vehicle, vitamin K2 (MK-7) (10 μM), or UQ10 (10 μM). Hoechst was added to correct for cell number (1 μg/mL). Next, ATP was measured using mammalian lysis buffer for 5 minutes after which 50 μL ATP substrate solution was added to the wells and incubated for 10 minutes in a dark environment. Finally, the medium was transferred to a white plate to measure luminescence
# [4] = tested on: VSMCs; experiment: Hypoxia-induced ATP decrease, co-treatment with CoCl2 (luminescence); format: cell-based; conditions: co-treatment CoCl2 100 μM and 10 μM test substance, 24 hours
# Protocol: This study was performed to investigate whether vitamin K2 (MK-7) can prevent the hypoxia-induced decrease in ATP (CoCl2 treatment, thereby stabilization of HIF1a). To perform this study, VSMCs were co-treated with CoCl2 and vitamin K2 (MK-7).
# as §2, with “First,” for “To perform this study,”, “CoCl2 (100 μM) or CoCl2 and” for “vehicle,”, “(MK-7)” for “(MK-7) (10 μM),”, “together (100 and 10 μM, respectively). Next, ATP was measured and corrected for cell numbers. CoCl2 values were set as relative to CoCl2 co-treated with vitamin K2 (MK-7) or UQ10.” for “(10 μM).”, “Finally,” for “Finally, the”, “luminescence.” for “luminescence”
# [5] = tested on: VSMCs; experiment: ATP over time in VSMCs with vitamin K2 (luminescence); format: cell-based; conditions: 10 μM, indicated time points
# Protocol: To perform this study, first, VSCMs (5000 cells/well) were plated in 96-well plates and left to adhere overnight. Next, cells were incubated for indicated time points with vitamin K2 (MK-7) (10 μM). Hoechst was added to correct for cell number (1 μg/mL). Next, ATP was measured using mammalian lysis buffer for 5 minutes, after which 50 μL ATP substrate solution was added to the wells and incubated for 10 minutes in a dark environment. Finally, medium was transferred to a white plate to measure luminescence.
# [6] = Thrombin Time (TT), Coag-Chrom 3003, treated Sprague-Dawley rats; format: in vivo; conditions: added to dabigatran and to rivaroxaban
# Protocol: To perform the study, 45 wild-type male Sprague-Dawley and 45 transgenic male Ren-2 rats [TGR(mREN-2)27] at the age of 10-11 weeks at the beginning of the treatment period were purchased from animal facility IKEM-CEM Institute of Clinical and Experimental Medicine (Prague, Czech Republic). All animals in the experiment were housed in individually ventilated cages (2-3 rats per cage) and kept in the animal rooms of JCET at a relative humidity of 55±10%, a temperature of 22±2° C., and a light cycle of 7 AM to 7 PM. The rats had free access to food and water. After delivery, animals were randomly divided into 10 experimental groups (5 or 10 rats per group), as indicated below in Table 1.
# Four days before the start of the treatment, the first part of animals' body weight and food intake was measured in selected representative three cages (rats n=9) to calculate the appropriate amount of tested compounds required for addition to the diet to obtain the dosing indicated in Table 1. It was estimated that food intake was approximately 30 g of chow per rat per day. […] The body mass of the rats was measured at the beginning and at the end of treatment.
# Prothrombin Time (PT), activated Partial Thromboplastin Time (aPTT), Thrombin Time (TT) and fibrinogen levels (Clauss method) were determined according to the manufacturer's instructions using Coag-Chrom 3003 apparatus (Bio-ksel, Grudziadz, Poland). […]
compound,measurement,setting,value
CC(C)=CCC/C(C)=C/CC/C(C)=C/CC/C(C)=C/CC/C(C)=C/CC/C(C)=C/CC/C(C)=C/CC1=C(C)C(=O)c2ccccc2C1=O [vitamin K2 (MK-7)],oxidative stress (DCF fluorescence normalized for cell count),[1],clearly reduced the oxidative stress
same,normal oxidative stress,"[2]; 5 hours incubation, no warfarin",reduced not only normal oxidative stress
same,warfarin-induced oxidative stress,"[2]; 24 hours 100 μM warfarin, then 5 hours incubation",counteracted the warfarin-induced oxidative stress
same,ATP production compared to the vehicle,[3],increased ATP production in VSMCs significantly (p=0.014)
same,hypoxia-induced decrease in ATP generation,[4],could (partially) prevent the decreased ATP generation
same,ATP production over time,[5],stimulated ATP production
same,increase of thrombin time by addition of vitamin K2 (MK-7),[6],5-7%

# Source: patent US20200289521A1, “USE OF VITAMIN K IN COMBINATION WITH ANTICOAGULANTS” (KAYDENCE PHARMA AS, priority 2019, published 2020)
